Measured values as given in US6399661B1, “Oral creatine supplement and method for making same” (priority 2000, dated 2002).

What was measured:
[1] = acidic solutions having a pH range of from 3-6; cited from earlier work
human body = details: 5 grams of creatine, 4-6 times a day, for two or more days, oral; cited from earlier work
[2] = conversion of creatine to creatinine in solutions of different pH; format: physicochemical
From the text: FIG. 1 is a graph showing rate of creatinine formation from creatine as a function of pH;
FIG. 2 is a graph showing rate of creatine loss as a function of time upon dissolution in different pH buffers; and
FIG. 3 is a chart showing time in minutes for conversion of 1 g creatine to creatinine in 2 liter at given pH.
The rate of creatinine formation from creatine as a function of pH is shown in FIG. 1 in accordance with research conducted by the inventor. In FIG. 2, the rate of creatine loss as a function of time upon dissolution in different pH buffers is shown.

CN(CC(=O)O)C(=N)N [creatine]
rate of conversion of creatine to creatinine [1]: almost instantaneous | total creatine concentration (human body): significant increase | creatine remaining following dissolution in a pH buffer ([2]; different pH buffers, as a function of time (FIG. 2)): the higher the pH, the higher the creatine remaining | rate of conversion of one gram of creatine to creatinine ([2]; various pH solutions, 1 g creatine in 2 liter (FIG. 3)): substantially slowed by increasing the pH of the solution
